Measurements as given in US10357577B2, “Bacterial nitroreductase enzymes and methods relating thereto” (AUCKLAND UNISERVICES LIMITED, priority 2010, dated 2019).
Entries after “also recorded” stand apart in the source; their conditions may differ.

Legend:
[1] = target: T1, NfsB(Ec) (Escherichia coli, UniProt P38489); experiment: Growth Inhibition assay, NTR over-expressing E. coli SOS-R2; format: cell-based; settings: elevated substrate concentrations (400 μM F-MISO, 600 μM HX4)
T1 construct: expressed in transfected cells; host or cells: E. coli SOS-R2 (endogenous nfsA, nfsB, nemA and azoR deleted) carrying pUCX::ntr
Experimental: FIG. 34 (B) illustrates the metabolism of F-MISO by members of the 58 NTR over-expression library as measured by Growth Inhibition assay as described for FIG. 34A except that cells were challenged with 400 μM F-MISO.
FIG. 35 (B) illustrates the metabolism of HX4 by members of the 58 NTR over-expression library as measured by Growth Inhibition assay as described for FIG. 35A except that cells were challenged with 600 μM HX4.
Individual microtiter plate wells containing 200 μl LB+amp, 0.4% glucose were inoculated with SOS-R2 pUCX::ntr strains and incubated overnight at 30° C., 200 rpm. Ten μl of the overnight culture were used to inoculate 190 μl of fresh assay media (LB+amp, 0.05 mM IPTG, 0.2% glucose) and incubated at 30° C., 200 rpm for 3 h. The 200 μl culture was split into 100 μl duplicates which were supplemented with either 100 μl challenge media (assay media+250 uM EF5+2% DMSO) or 100 μl control media (assay media+2% DMSO). Initial OD600 readings were recorded and then plates incubated at 30° C., 200 rpm for 4 h after which final OD600 readings were taken and used to calculate strains respective growth inhibition in EF5 presence.

[2] = system: HCT116 cells expressing E. coli NfsB; experiment: Monolayer antiproliferative (IC50) assay, NTR-expressing HCT116; format: cell-based, human; settings: 18 hrs exposure, 5 days regrowth
Experimental: (§1) FIGS. 10 (B) and 10 (C) illustrates the results of evaluation of 2-nitroimidazole clinical imaging candidates with E. coli and non-E. coli NTRs. Stably-expressing cells were treated with varying concentration of 2-nitroimidazole prodrugs diluted in αMEM+5% FCS+P/S. Cells were exposed to prodrug for 18 hrs, washed and left to regrow for 5 days. IC50 was determined as the concentration of prodrug required to inhibit cell growth by 50% of untreated controls. IC50 values are mean for ≥2 independent experiments. WT:NTR ratio-ratio of IC50 means from WT cells versus NTR-expressing cell lines.
FIG. 21 illustrates antiproliferative activity (IC50 value) of prodrug candidates with E. coli and non-E. coli nitroreductases. Stably-expressing cells were treated with varying concentration of prodrug diluted in αMEM+5% FCS+P/S. Cells were exposed to prodrug for 18 hrs, washed and left to regrow for 5 days. IC50 was determined as the concentration of prodrug required to inhibit cell growth by 50% of untreated controls. IC50 values are mean for ≥2 independent experiments. WT:NTR ratio-interexperimental ratio of IC50 means from WT cells versus NTR-expressing cell lines.
(§2) Isolated NTR gene sequences were subject to PCR and introduced in the bicistronic plasmid F579 via Gateway cloning (Invitrogen) as described by Prosser et al. (2010, Biochem Pharmacol, 79, 678-687). Stably transfected cell lines were created by transfection of the relevant plasmid using FuGENE 6 Transfection Reagent (Roche). Transfected cell populations were maintained by passage in puromycin
Cells were passaged in alpha-Minimal Essential Media, (αMEM; Gibco) supplemented with 5% FBS, (GIBCO NZ) without antibiotics. Cell were passaged for <3 months from frozen stocks and confirmed Mycoplasma free (PCR-ELISA; Roche Diagnostics). Cells were aliquoted into the 96-well plate (100 μL/well) and cells were left to attach (≥4 hrs). […] Plates were read on an ELx 808 Absorbance Microplate Reader (Bio-Tek Instruments). Absorbance was measured at 490 nm and 450 nm (final absorbance 490-450). […]

[3] = system: HCT116 cells expressing NfsB homologue P. putida 2432; experiment: as above; format: cell-based, human; settings: 18 hrs exposure, 5 days regrowth
Experimental: as §1, §2
Cells were passaged in alpha-Minimal Essential Media, (αMEM; Gibco) supplemented with 5% FBS, (GIBCO NZ) without antibiotics. Cell were passaged for <3 months from frozen stocks and confirmed Mycoplasma free (PCR-ELISA; Roche Diagnostics). […] Plates were read on an ELx 808 Absorbance Microplate Reader (Bio-Tek Instruments). Absorbance was measured at 490 nm and 450 nm (final absorbance 490-450). […]

[4] = system: ONYX-411^WT infected HCT-116WT cells; experiment: Cytopathic effect assay, control virus; format: cell-based, adenovirus; settings: metronidazole refreshed every 2 days, read on day 9
Experimental: (§3) FIG. 31 illustrates the cytoprotective effects of NfsB dependent activation of metronidazole by conditionally replicating virus ONYX411^NfsB. HCT-116WT cells were seeded overnight and the top wells were infected with 0.125 MOI for ONYX411-nfsB and 1 MOI for ONYX411-WT with 2-fold serial dilutions. 24 hrs following infection media was replaced with fresh αMEM containing 2% FCS and varying concentrations of metronidazole, which was refreshed every 2 days. On day 9 wells were fixed with 10% TCA and stained with SRB and cell density analysed.
(§4) HCT-116WT cells were seeded overnight and the top wells were infected with 0.125 MOI of the replication competent adenovirus ONYX411-nfsB and 1 MOI for ONYX411-WT with 2-fold serial dilutions ((Singleton et al, 2007, Cancer Gene Ther 14 (12): 953-967). 24 hrs following infection media was replaced with fresh αMEM containing 2% FCS and varying concentrations of metronidazole, which was refreshed every 2 days. On day 9 wells were fixed with 10% TCA and stained with SRB and cell density analysed.

[5] = system: ONYX-411^NfsB infected HCT-116WT cells; experiment: Cytopathic effect assay, replicating adenovirus expressing E. coli NfsB; format: cell-based; settings: metronidazole refreshed every 2 days, read on day 9
Experimental: as §3, §4

[6] = Human plasma concentration-time (AUC) and tolerability; format: in vivo; settings: 50 μM metronidazole exposure, achievable in humans, read-out: human AUC equivalent to the protective exposure
[7] = system: nitroreductase NfsA-expressing HCT116 'activator' cells; experiment: MCL (multicellular layer) bystander experiment, NfsA-dependent activation; format: cell-based, human
Experimental: Displacement of the Target cell survival curve to the left (T to Tc) is indicative of the presence of a cytotoxic metabolite(s) able to diffusible out of the sensitive activator (A) cell population. The prodrug concentrations for 10% survival (C10) of target cells (wild-type cells) grown without activators (T), targets in co-culture (TC) and activators (nfsA-expressing cells) in co-culture (AC) were determined by interpolation. BEE-Bystander effect efficiency calculates the drugs bystander effect: ((Log C10T−Log C10TC)/(Log C10T−Log C10AC)).
The prodrug concentrations for 10% survival (C10) of target cells (wild-type cells) grown without activators (T), and targets in co-culture (TC) and activators (NTR-expressing cells) in co-culture (AC) can be determined. The bystander effect of a test prodrug is measured by the bystander effect efficiency which can be calculated using the algorithm ((Log C10T−Log C10TC)/(Log C10T−Log C10AC)).
Millicell-CM membrane inserts (Millipore) were coated in calf-skin collagen type III (Sigma-Aldrich) to facilitate cell attachment. […] After exposure, inserts were disaggregated (0.07% trypsin, 10 min, 37° C., followed by 100 μg/ml DNAase I (Sigma-Aldrich). Cells were counted, resuspended and plated in P60 dishes to determine clonogenic survival. To discriminate clonogenic activator (NTR+) from target (NTR−) colonies cells were plated in non-selective medium (total cells) and medium containing 1 μM puromycin (activator cells). Colonies were grown in a 37° C. 5% CO2 incubator for 10 days before staining with methylene blue (2 g/liter in 50% v/v aqueous ethanol). Colonies containing >50 cells were counted as clonogenic survivors. Surviving fractions for each population was calculated as the plating efficiency for drug-treated MCLs/untreated controls. The drug concentrations for 10% survival (C10) of target cells grown without activators (T), targets in co-culture (Tc) and activators in co-culture (Ac) was determined by interpolation.

[8] = system: 25% HCT-116^nfsB/75% HCT-116^WT or 25% HCT-116^nfsA/75% HCT-116^WT tumours; experiment: Tumour xenograft growth delay; format: in vivo, NIH-III nude mice; settings: single dose i.p. PR-104 1000 μmol/kg
Experimental: FIG. 18 illustrates in vivo activity of PR-104 in 25% nfsB or 25% nfsA tumours. Average tumour volume and Kaplan-Meier growth plots for tumours grown subcutaneously on NIH-III mice. Tumours were composed of either 25% HCT-116^nfsB/75% HCT-116^WT or 25% HCT-116^nfsA/75% HCT-116^WT. When tumours reached 7 mm^2 mice (n=8-11 per group) were randomly assigned to a treatment group and injected with a single dose (i.p.) of PBS (control) or PR-104 (1000 μmol/kg). Tumour measurements were recorded twice weekly and mice were culled when tumours exceeded a mean diameter of […].
Specific pathogen-free female homozygous NIH-III nude mice (CrI:NIH-Lyst^bgFoxn1^nuBtk^xid; Charles River Laboratories) were housed in Techniplast microisolator cages and fed Harlan Teklad diet 2018i. […] Tumours were monitored using electronic calipers and mice were randomised into treatment groups once their tumours reached 7×7 mm in diameter. Tumour size and body weight were determined three times weekly. Tumour volume was calculated as π (I×w^2)/6, where I is the major axis and w is the perpendicular minor axis. […] The median time for tumours to increase in volume 4-fold relative to pretreatment volume (RTV-4) was determined, and the specific growth delay (SGD) was calculated as the percentage increase in RTV-4 for treated versus control groups. […]

T1 sequence (P38489 whole entry): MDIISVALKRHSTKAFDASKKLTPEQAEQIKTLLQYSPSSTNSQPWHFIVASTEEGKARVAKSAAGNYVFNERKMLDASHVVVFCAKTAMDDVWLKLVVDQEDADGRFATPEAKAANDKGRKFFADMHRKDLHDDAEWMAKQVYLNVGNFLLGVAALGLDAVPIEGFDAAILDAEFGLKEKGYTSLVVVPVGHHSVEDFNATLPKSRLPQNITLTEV

## O=[N+]([O-])c1nccn1CC(O)CF (stereo not shown) [F-MISO, 1-fluoro-3-(2-nitro-1H-imidazol-1-yl)propan-2-ol]
[1]
  activity with 2-NI substrate (in words): substantial activity
[2]
  sensitivity to 2-nitroimidazoles (in words): modest sensitivity
[3]
  sensitivity to 2-nitroimidazoles (in words): modest sensitivity

## O=[N+]([O-])c1nccn1Cc1cn(C(CO)CF)nn1 (stereo not shown) [HX4, 3-fluoro-2-(4-((2-nitro-1H-imidazol-1-yl)methyl)-1H-1,2,3-triazol-1-yl)propan-1-ol]
[1]
  activity with 2-NI substrate (in words): substantial activity

## Cc1ncc([N+](=O)[O-])n1CCO [Metronidazole, 2-(2-methyl-5-nitro-1H-imidazol-1-yl)ethanol]
[4]
  effect on oncolytic activity (in words): no inhibitory effects
[5]
  concentration range with reduction in oncolytic activity: 50 to 500 µM
[6]
  AUC: 1200 µM·h
[7]; MCL of NTR-expressing and parental HCT116 cells
  bystander property (in words): lack any measurable bystander effect; also recorded: zero bystander property
[7]; hyperoxic (95% O2) MCLs, at concentrations achievable in α-MEM+10% FBS, activator fraction differs per experiment
  estimated bystander effect efficiency (BEE): 0%

## CS(=O)(=O)OCCN(CCBr)c1c(C(=O)NCCOP(=O)(O)O)cc([N+](=O)[O-])cc1[N+](=O)[O-] [PR-104, 2-((2-bromoethyl)(2,4-dinitro-6-((2-(phosphonooxy)ethyl)carbamoyl)phenyl)amino)ethyl methanesulfonate]
[8]
  PR-104 dependent growth delay, nfsB versus nfsA tumours (in words): similar, with no statistically significant difference
